# Data: ChEMBL document CHEMBL1201862, “PubChem BioAssay data set” (2004)
#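 Method: 48-hour compound exposure of cells in 96-well plates, five concentrations, linear interpolation of endpoints. GI50 = concentration required for 50% inhibition of growth.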 The source made the active and inactive calls. Rule as the data show it: active = GI50 up to about 1.1 µM and inactive = higher.
# Tests used:
# Test in all cases: NCI tumour cell line growth inhibition, 48 h
# U-251 = test system: U-251
# Hs-578T = test system: Hs-578T
# NCI-H226 = test system: NCI-H226
# A498 = test system: A498
# M14 = test system: M14
# CCRF-CEM = test system: CCRF-CEM
# SK-MEL-5 = test system: SK-MEL-5
# OVCAR-3 = test system: OVCAR-3
# HCT-15 = test system: HCT-15
# A549 = test system: A549
# COLO 205 = test system: COLO 205
# SK-MEL-28 = test system: SK-MEL-28
# HCT-116 = test system: HCT-116
# IGROV-1 = test system: IGROV-1
# UACC-62 = test system: UACC-62
# OVCAR-5 = test system: OVCAR-5
# 786-0 = test system: 786-0
# RXF 393 = test system: RXF 393
# KM12 = test system: KM12
# NCI-H23 = test system: NCI-H23
# SF-295 = test system: SF-295
# SN12C = test system: SN12C
# LOX IMVI = test system: LOX IMVI
# SNB-19 = test system: SNB-19
# UACC-257 = test system: UACC-257
# PC-3 = test system: PC-3
# NCI-H460 = test system: NCI-H460
# MDA-MB-435 = test system: MDA-MB-435
# CAKI-1 = test system: CAKI-1
# SF-268 = test system: SF-268
# MDA-N = test system: MDA-N
# SNB-75 = test system: SNB-75
# NCI-H522 = test system: NCI-H522
# HOP-62 = test system: HOP-62
# SW-620 = test system: SW-620
# MCF7 = test system: MCF7
# ACHN = test system: ACHN
# SR = test system: SR
# MOLT-4 = test system: MOLT-4
# HOP-92 = test system: HOP-92
# OVCAR-4 = test system: OVCAR-4
# DU-145 = test system: DU-145
# TK-10 = test system: TK-10
# SF-539 = test system: SF-539
# NCI/ADR-RES = test system: NCI/ADR-RES
# SK-MEL-2 = test system: SK-MEL-2
# HL-60 = test system: HL-60
# UO-31 = test system: UO-31
# BT-549 = test system: BT-549
# SK-OV-3 = test system: SK-OV-3
# T47D = test system: T47D
# EKVX = test system: EKVX
# Malme-3M = test system: Malme-3M
# HT-29 = test system: HT-29
# OVCAR-8 = test system: OVCAR-8
structure (smiles),measurement,setting,value
COc1cc(Nc2cnc3cc(F)c(F)cc3n2)cc(OC)c1,GI50,U-251,37.9 µM (inactive)
same,GI50,Hs-578T,37.7 µM (inactive)
same,GI50,NCI-H226,> 100 µM (inactive)
same,GI50,A498,53.6 µM (inactive)
same,GI50,M14,> 100 µM (inactive)
same,GI50,CCRF-CEM,> 100 µM (inactive)
same,GI50,SK-MEL-5,> 100 µM (inactive)
same,GI50,OVCAR-3,> 100 µM (inactive)
same,GI50,HCT-15,> 100 µM
same,GI50,A549,> 100 µM (inactive)
same,GI50,COLO 205,> 100 µM (inactive)
same,GI50,SK-MEL-28,> 100 µM (inactive)
same,GI50,HCT-116,58.1 µM (inactive)
same,GI50,IGROV-1,> 100 µM (inactive)
same,GI50,UACC-62,18.2 µM (inactive)
same,GI50,OVCAR-5,> 100 µM (inactive)
same,GI50,786-0,37.9 µM (inactive)
same,GI50,RXF 393,12.2 µM (inactive)
same,GI50,KM12,> 100 µM (inactive)
same,GI50,NCI-H23,20.8 µM (inactive)
same,GI50,SF-295,36 µM (inactive)
same,GI50,SN12C,> 100 µM (inactive)
same,GI50,LOX IMVI,67.3 µM (inactive)
same,GI50,SNB-19,26.2 µM (inactive)
same,GI50,UACC-257,> 100 µM (inactive)
same,GI50,PC-3,> 100 µM (inactive)
same,GI50,NCI-H460,> 100 µM (inactive)
same,GI50,MDA-MB-435,> 100 µM (inactive)
same,GI50,CAKI-1,> 100 µM (inactive)
same,GI50,SF-268,43.7 µM (inactive)
same,GI50,MDA-N,> 100 µM (inactive)
same,GI50,SNB-75,18.9 µM (inactive)
same,GI50,NCI-H522,11.4 µM (inactive)
same,GI50,HOP-62,25.9 µM (inactive)
same,GI50,SW-620,> 100 µM (inactive)
same,GI50,MCF7,> 100 µM (inactive)
same,GI50,ACHN,> 100 µM (inactive)
same,GI50,SR,> 100 µM (inactive)
same,GI50,MOLT-4,> 100 µM (inactive)
same,GI50,HOP-92,25.8 µM (inactive)
same,GI50,OVCAR-4,> 100 µM (inactive)
same,GI50,DU-145,> 100 µM (inactive)
same,GI50,TK-10,> 100 µM (inactive)
same,GI50,SF-539,71 µM (inactive)
same,GI50,NCI/ADR-RES,90.4 µM (inactive)
same,GI50,SK-MEL-2,> 100 µM (inactive)
same,GI50,HL-60,> 100 µM (inactive)
same,GI50,UO-31,> 100 µM (inactive)
same,GI50,BT-549,33.9 µM (inactive)
same,GI50,SK-OV-3,21.3 µM (inactive)
same,GI50,T47D,> 100 µM (inactive)
same,GI50,EKVX,> 100 µM (inactive)
same,GI50,Malme-3M,> 100 µM (inactive)
same,GI50,HT-29,> 100 µM (inactive)
same,GI50,OVCAR-8,> 100 µM (inactive)
